Patent US20160159808A1, “HETEROCYCLIC COMPOUND” (TAKEDA PHARMACEUTICAL COMPANY LIMITED, priority 2013, published 2016)

Experiments:
[1] = system: Male C57BL/6 mice; experiment: Contextual fear conditioning test, MK-801-induced deficits; assay type: in vivo; conditions: 30 mg/kg p.o. 60 min before test, MK-801 (maleate) 0.08 mg/kg s.c. 30 min before test, n=10, FIG. 1
Protocol: Improvement effect on MK-801 ((5S,10R)-5-methyl-10,11-dihydro-5H-5,10-epiminodibenzo[a,d][7]annulene)-induced disorder in contextual fear conditioning test.
Male C57BL/6 mice were purchased from CLEA Japan, Inc. They were used for an experiment after a habituation period of at least one week after carrying them in the animal experimental facility. They were bred in the animal experimental facility with environment in which 12-hours light-dark cycle was performed, humidity and temperature were controlled, and free water drinking and feeding were allowed. Handling of experimental animals and experimental procedure of this study were approved by the Experimental Animal Ethics Committee of Takeda Pharmaceutical Company Limited.
A test compound was suspended in 0.5% methylcellulose solution at a dose of 30 mg/kg, and orally administered. MK-801 (maleate) (Sigma-Aldrich, St Louis, Mo.) was dissolved in saline at a dose of 0.08 mg/kg, and subcutaneously administered. All drugs were administered to mice at a dose of 10 mL/kg.
Contextual fear conditioning test is widely used as memory and learning test system depending on the hippocampus and amygdala. The improvement effect of test compounds on MK-801-induced deficits was investigated by contextual fear conditioning test. The test compounds and MK-801 (maleate) were administered 60 min and 30 min, respectively, before the test. 0.5% methylcellulose and saline were administered to the control groups 60 min and 30 min, respectively, before the test. 0.5% methylcellulose and MK-801 (maleate) were administered to the vehicle groups 60 min and 30 min, respectively, before the test. […] In the test session on day 2 of the experiment, mice were placed in the same chamber for 7 minutes, and freezing was measured during that period. The freezing was calculated as a percentage of freezing rates during measuring period with use of an automatic analysis software manufactured by the O'Hara & Co., Ltd. All data were shown as the mean+standard error (n=10). […]

[2] = biological target: T1, human PDE2A3 enzyme (Homo sapiens, UniProt O00408); experiment: PDE Enzyme Inhibitory Assay (SPA, [3H]cGMP substrate); assay type: biochemical; conditions: compound 1 μM; [3H]cGMP 77 nM; 60 min at room temperature; read-out: inhibitory rate (%) (1 μM)
T1 construct: Human PDE2A3 full-length gene was transduced into Sf9; His-tag; made in house; host or cells: Sf9 insect cells
T1 sequence (O00408 whole entry): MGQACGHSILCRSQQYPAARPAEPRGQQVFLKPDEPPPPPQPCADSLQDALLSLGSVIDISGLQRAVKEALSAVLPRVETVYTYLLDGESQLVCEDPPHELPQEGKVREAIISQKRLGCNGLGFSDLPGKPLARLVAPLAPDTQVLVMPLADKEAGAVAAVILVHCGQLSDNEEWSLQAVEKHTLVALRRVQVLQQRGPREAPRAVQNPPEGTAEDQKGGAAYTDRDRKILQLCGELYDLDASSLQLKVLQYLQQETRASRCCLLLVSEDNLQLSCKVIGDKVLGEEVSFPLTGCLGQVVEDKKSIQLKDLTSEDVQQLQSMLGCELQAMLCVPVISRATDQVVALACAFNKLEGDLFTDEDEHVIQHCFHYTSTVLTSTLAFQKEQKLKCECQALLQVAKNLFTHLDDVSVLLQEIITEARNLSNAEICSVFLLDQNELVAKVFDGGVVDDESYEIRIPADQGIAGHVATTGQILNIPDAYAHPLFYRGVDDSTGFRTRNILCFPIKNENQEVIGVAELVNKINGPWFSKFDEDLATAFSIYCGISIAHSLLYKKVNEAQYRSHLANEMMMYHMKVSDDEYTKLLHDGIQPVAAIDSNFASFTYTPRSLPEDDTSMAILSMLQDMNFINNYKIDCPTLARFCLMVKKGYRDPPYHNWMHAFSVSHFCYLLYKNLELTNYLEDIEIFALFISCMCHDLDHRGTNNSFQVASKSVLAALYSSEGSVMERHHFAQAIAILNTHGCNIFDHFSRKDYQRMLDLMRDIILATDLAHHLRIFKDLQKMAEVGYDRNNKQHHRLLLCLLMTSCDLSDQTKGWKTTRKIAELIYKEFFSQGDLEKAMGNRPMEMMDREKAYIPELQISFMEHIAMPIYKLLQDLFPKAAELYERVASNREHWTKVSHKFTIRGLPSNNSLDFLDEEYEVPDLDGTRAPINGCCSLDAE
Protocol: PDE Enzyme Inhibitory Assay Human PDE2A3 full-length gene was transduced into Sf9, and human PDE2A3 enzyme was purified by His-tag affinity column and gel filtration. The enzyme was stored at −70° C. until use. PDE activity was measured using a SPA (Scintillation Proximity Assay) (GE Healthcare). To evaluate the inhibitory activity of the compound, 10 μl of serial diluted compounds were reacted with 20 μl of PDE enzyme in assay buffer (50 mM HEPES-NaOH, 8.3 mM MgCl2, 1.7 mM EGTA, 0.1% BSA (pH 7.4)) for 30 min. at room temperature. Final concentration of DMSO in the reaction solution was 1 percent. Compounds were tested in duplicate in 96-well half-area plates (Corning) or 384-well OptiPlate (PerkinElmer). To start the reaction, 10 μl of substrate [^3H] cGMP (final concentration 77 nM, PerkinElmer) was added to a total volume of 40 μl. After reaction for 60 min at room temperature, 20 μl of 20 mg/mL yttrium SPA beads containing zinc sulfate was added to terminate the PDE reaction. After being settled for further 1 hour, the assay plates were counted in a scintillation counter (PerkinElmer) to allow calculation of inhibition rate. Inhibition rate was calculated on the basis of 0% control wells with enzyme and DMSO, and 100% control wells without enzyme.

inhibition at 1 µM [2]: 100%
SMILES: Cc1ncn(-c2nc3c(C(=O)N[C@@H](c4ccc(OC(F)(F)F)cc4)C(C)(C)O)cnn3cc2C)n1 [Example 161, N-((1S)-2-hydroxy-2-methyl-1-(4-(trifluoromethoxy)phenyl)propyl)-6-methyl-5-(3-methyl-1H-1,2,4-triazol-1-yl)pyrazolo[1,5-a]pyrimidine-3-carboxamide]
improvement effect on MK-801-induced deficits in contextual fear conditioning test (freezing) [1]: improvement effect on MK-801-induced deficits was shown
